Biological target: T1, OPTN (Homo sapiens, UniProt Q96CV9)
T1 construct: protein for SPR
Assay: surface plasmon resonance
Type: binding
Conditions: rapid on-rate and off-rate kinetics; sensorgrams in Supplementary Fig. 7a, b

T1 sequence (Q96CV9 whole entry): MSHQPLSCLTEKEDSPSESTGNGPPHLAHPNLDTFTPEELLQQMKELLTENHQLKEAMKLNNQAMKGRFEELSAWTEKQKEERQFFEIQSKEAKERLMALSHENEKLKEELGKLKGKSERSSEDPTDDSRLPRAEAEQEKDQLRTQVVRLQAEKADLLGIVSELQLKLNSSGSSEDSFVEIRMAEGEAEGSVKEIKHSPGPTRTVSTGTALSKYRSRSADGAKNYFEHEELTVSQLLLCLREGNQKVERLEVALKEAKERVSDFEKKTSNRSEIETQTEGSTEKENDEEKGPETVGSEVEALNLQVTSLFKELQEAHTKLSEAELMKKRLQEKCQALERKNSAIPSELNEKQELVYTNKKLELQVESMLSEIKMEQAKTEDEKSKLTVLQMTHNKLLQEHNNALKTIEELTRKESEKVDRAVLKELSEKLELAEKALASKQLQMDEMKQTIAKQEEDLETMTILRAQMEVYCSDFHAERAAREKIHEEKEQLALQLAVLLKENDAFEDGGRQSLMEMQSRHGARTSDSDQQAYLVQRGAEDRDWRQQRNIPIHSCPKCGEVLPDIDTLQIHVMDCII

KD: 5.115 × e^−5 M
Structure (SMILES): C[C@H]1O[C@@H](O[C@H]2CC[C@@]3(C)[C@@H](CC[C@]4(C)[C@@H]3C=C[C@]35OC[C@@]6(CCC(C)(C)C[C@H]63)[C@H](O)C[C@]54C)[C@]2(C)CO)[C@H](O)[C@@H](O[C@@H]2O[C@H](CO)[C@@H](O)[C@H](O)[C@H]2O)[C@H]1O [Saikosaponin D]

— paper PMC8551263, “Optineurin modulates the maturation of dendritic cells to regulate autoimmunity through JAK2-STAT3 signaling” (Nature Communications, 2021)
